Drawing on PubChem BioAssay (NCI), this text covers GI50 and TGI for 17 molecules.

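Cells were grown in 96-well plates and exposed to each compound for 48 hours at five concentrations; endpoints were interpolated linearly between bracketing concentrations, or set to the highest concentration if not reached. GI50: concentration for 50% inhibition of growth. Definition used: TGI = concentration required for complete inhibition of growth.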 Where a SMILES comes first, the peptide text is derived from it. [ ]: non-standard residue; d: D form. The star is where a group is joined. NMeF = CN[CH](Cc1ccccc1)C(=O)O; NMeV = CN[CH](C(=O)O)C(C)C; Boc = CC(C)(C)OC(=O)*; OBn = c1ccc(CO*)cc1 A value given as a limit tells only on which side of the number the result lay.

Among the test systems are HCT-15 colon; NCI-H522 lung; SK-MEL-28 melanoma; NCI-H460 lung; COLO 205 colon; HCC-2998 colon; ACHN renal; BT-549 breast; NCI/ADR-RES ovarian; T-47D breast.
Common to all, as to experiment: NCI tumour cell line growth inhibition, 48 h

Take `CCC[CH2][Sn]1([CH2]CCC)[O]C(=O)C[S]1`: the GI50 is 1.46 µM with HCT-15 colon; 0.212 µM in the assay on NCI-H522 lung; 1.35 µM in the assay on SK-MEL-28 melanoma; 4.09 µM with NCI-H460 lung; 1.75 µM with COLO 205 colon; 1.83 µM with HCC-2998 colon. The GI50 in the assay with ACHN renal is 1.64 µM. For the same molecule, the TGI with HCT-15 colon is 3.18 µM; with NCI-H522 lung, 0.814 µM; with SK-MEL-28 melanoma, 2.69 µM; with NCI-H460 lung, 16.9 µM; in the assay on COLO 205 colon, 4.11 µM; with HCC-2998 colon, 3.97 µM. In the assay with ACHN renal, this molecule had a TGI of 3.04 µM.
`COC1=NN2C(OC)(c3ccccc3)c3c(-c4ccccc4)sc(-c4ccccc4)c3C2(c2ccccc2)S1` (centres undefined): the TGI with HCT-15 colon, in the assay on NCI-H522 lung, in the assay with SK-MEL-28 melanoma, with NCI-H460 lung, in the assay on COLO 205 colon and in the assay on HCC-2998 colon was > 100 µM throughout. Further, in the assay with ACHN renal, the TGI was > 100 µM.
Turning to `C(=C1\CCC/C(=C/c2ccccc2)C1=NNc1ccccc1)/c1ccccc1`, the TGI in the assay on HCT-15 colon, in the assay on NCI-H522 lung, in the assay on SK-MEL-28 melanoma, in the assay on NCI-H460 lung, with COLO 205 colon and in the assay with HCC-2998 colon was > 100 µM in each case. Besides, in the assay with ACHN renal, the TGI is > 100 µM.
In the case of `CC(C)C(NC(=O)OC(C)(C)C)C(=O)N(C)C(Cc1ccccc1)C(=O)N(C)C(C(=O)N(C)C(C(=O)OCc1ccccc1)C(C)C)C(C)C` (centres undefined) (Boc-V[NMeF][NMeV][NMeV]-OBn; configuration not given here), the TGI in the assay on HCT-15 colon, with NCI-H522 lung, in the assay with NCI-H460 lung, in the assay on COLO 205 colon, in the assay on HCC-2998 colon and in the assay with ACHN renal was > 100 µM each time.
On to `Cc1cn(C2C=CC(=O)C(C)O2)c(=O)[nH]c1=O` (centres undefined), for which the TGI in the assay with NCI-H522 lung is 32.4 µM; in the assay on SK-MEL-28 melanoma it was 28.1 µM; in the assay on NCI-H460 lung it was 35.5 µM; in the assay on COLO 205 colon it was 32 µM; in the assay on ACHN renal, 31.3 µM.
As for `CC(C)C(/C=C/c1ccccc1)=N\NC(=O)N/N=C(/C=C/c1ccccc1)C(C)C`, the TGI in the assay with HCT-15 colon is 80.9 µM; with NCI-H522 lung, 58.6 µM; in the assay on SK-MEL-28 melanoma it was > 100 µM; in the assay with NCI-H460 lung, 33.4 µM; with COLO 205 colon, 44.3 µM; with HCC-2998 colon it was > 100 µM. Moreover, the TGI in the assay on ACHN renal is > 100 µM.
As for `CC(=O)OCCC/C(=C\c1ccc2ccccc2c1)[N+](=O)[O-]`, the GI50 was 1.72 µM in the assay with BT-549 breast; 1.61 µM in the assay with HCT-15 colon; 0.353 µM with NCI-H522 lung; 1.26 µM with SK-MEL-28 melanoma; 2.91 µM in the assay on NCI-H460 lung; 2.69 µM in the assay with NCI/ADR-RES ovarian. In addition, the GI50 in the assay on COLO 205 colon is 1.57 µM; in the assay on HCC-2998 colon, 1.73 µM; with ACHN renal, 1.89 µM. Moreover, the TGI was 3.42 µM in the assay with BT-549 breast; 3.42 µM with HCT-15 colon; 1.77 µM with NCI-H522 lung; 2.84 µM in the assay on SK-MEL-28 melanoma; 8.62 µM in the assay on NCI-H460 lung; 8.67 µM in the assay with NCI/ADR-RES ovarian. Besides, the figures for the TGI with COLO 205 colon, in the assay with HCC-2998 colon and with ACHN renal were 3.43 µM, 3.32 µM and 3.68 µM, respectively.
In the case of `COc1cc(NCC(C#N)C#N)ccc1N=Nc1ccc([N+](=O)[O-])cc1`, the TGI in the assay with HCT-15 colon, in the assay on NCI-H522 lung, in the assay on SK-MEL-28 melanoma, in the assay on NCI-H460 lung, in the assay with COLO 205 colon and with HCC-2998 colon was > 100 µM in each case. For the same molecule, the TGI with ACHN renal was > 100 µM.
As to `CSc1nc(Cl)c(Br)c(Nc2c[nH]c(=O)[nH]c2=O)n1`, the TGI in the assay on HCT-15 colon turned out to be 27.6 µM; in the assay with NCI-H522 lung, 3.88 µM; with SK-MEL-28 melanoma, 95.8 µM; in the assay on NCI/ADR-RES ovarian, 43.3 µM; with COLO 205 colon it was 32.9 µM; in the assay on HCC-2998 colon, 42.2 µM. In addition, the TGI in the assay with ACHN renal was determined as 35.5 µM; in the assay on T-47D breast it was 40 µM.
Take `COc1cc2ccc(CC#N)cc2cc1OC`: the TGI with SK-MEL-28 melanoma, with NCI-H460 lung and in the assay with ACHN renal was > 100 µM throughout.
As to `O=C1c2c(c3c4ccccc4n4c3c3c2c2ccccc2n3C/C=C\C4)C(=O)N1Cc1ccccc1`, the TGI in the assay on HCT-15 colon, with NCI-H522 lung, in the assay on SK-MEL-28 melanoma, in the assay with NCI-H460 lung, in the assay with COLO 205 colon and with HCC-2998 colon was > 100 µM throughout. The TGI in the assay with ACHN renal is > 100 µM.
In the case of `COc1cc2c(c3oc(-c4ccc5c(c4)OCO5)c(O)c(=O)c13)CCC(C)(C)O2`, the TGI in the assay with HCT-15 colon, in the assay with SK-MEL-28 melanoma, in the assay on COLO 205 colon and in the assay with HCC-2998 colon was > 100 µM in each case.
Regarding `O=C1c2cnccc2Cc2cccc3c2N1c1ccccc1S3`, the TGI is > 100 µM in the assay with HCT-15 colon; 32.2 µM in the assay with NCI-H522 lung; 78.2 µM with SK-MEL-28 melanoma; 59.2 µM in the assay with COLO 205 colon; 41 µM with HCC-2998 colon; 73.9 µM in the assay on ACHN renal.
In the case of `CC(=O)Nc1ccc(-c2nnc(SCC(=O)Nc3ccccc3[N+](=O)[O-])o2)cc1`, the TGI in the assay with HCT-15 colon, in the assay on NCI-H522 lung, in the assay with SK-MEL-28 melanoma, in the assay on NCI-H460 lung, with COLO 205 colon and with ACHN renal was > 100 µM in each case.
As to `Cn1cc2ccccc2c1-c1nc(F)nc(Oc2ccc3c(c2)CC[C@@H]2C3CC[C@]3(C)C(O)CCC23)n1` (some centres undefined), the TGI in the assay on HCT-15 colon came to 33.4 µM; in the assay with NCI-H522 lung it was 26 µM; in the assay on SK-MEL-28 melanoma, 33.2 µM; in the assay with COLO 205 colon, 44.2 µM; in the assay on HCC-2998 colon, 36.4 µM; with ACHN renal, 34.1 µM.
Turning to `COc1ccc2oc(-c3ccncc3)cc(=O)c2c1`, the TGI in the assay with HCT-15 colon, in the assay with SK-MEL-28 melanoma, in the assay on NCI-H460 lung, in the assay with COLO 205 colon, in the assay with HCC-2998 colon and with ACHN renal was > 100 µM in each case.
As for `O=C1C2Cc3ccccc3CN2C(=O)N1CN1CCN(CN2C(=O)C3Cc4ccccc4CN3C2=O)CC1` (centres undefined), the TGI in the assay on HCT-15 colon, in the assay with NCI-H522 lung, with SK-MEL-28 melanoma, with NCI-H460 lung, with COLO 205 colon and in the assay with HCC-2998 colon was > 100 µM in each case. Further, the TGI with ACHN renal is > 100 µM.
